What was measured:
[1] = Binding affinity to complement component C3c in human plasma; type: cell-free
[2] = Inhibition of complement component C3c

CC[C@H](C)[C@H](N)C(=O)N[C@H]1CSSC[C@@H](C(=O)N[C@H](C(N)=O)[C@@H](C)O)NC(=O)[C@H](CCCNC(=N)N)NC(=O)[C@H](Cc2cnc[nH]2)NC(=O)[C@H](Cc2cnc[nH]2)NC(=O)CNC(=O)[C@H](Cc2c[nH]c3ccccc23)NC(=O)[C@H](CC(=O)O)NC(=O)[C@H](CCC(N)=O)NC(=O)[C@H](C(C)C)NC(=O)[C@H](C(C)C)NC1=O [COMPSTATIN]
Kd [1]: 0.39 µM
IC50 [2]: 12 µM

From ChEMBL document CHEMBL1156496 (J Biol Chem, 2007)
